From patent publication US4489091A, “Antilipemic and anti-inflammatory compositions containing sulfonate derivatives” (Taiho Pharmaceutical Company Limited, priority 1980, dated 1984)
Read-outs that look alike come from different tables or passages of the source.

Experiments:
triglycerides = assay: Antilipemic effect: percent triglycerides inhibition in plasma of rats given an olive oil-cholesterol mixture; format: in vivo, male Wistar rats; details: for inhibition in vivo at 200 mg/kg: read-out: Anti-lipemic effect, TG (percent triglycerides inhibition), asterisked; for inhibition in vivo at 100 mg/kg: oral 100 mg/kg, read-out: Anti-lipemic effect, TG (percent triglycerides inhibition)
Protocol: (§1) The above compounds of this invention are tested by the following methods for antilipemic effect and acute toxicity. In the column of antilipemic effect in the table, the asterisked values indicate the effect achieved by orally giving 200 mg/kg of the compounds concerned, and the unmarked values, the effect attained by orally giving 100 mg/kg. In the same column, "TG" stands for percent triglycerides inhibition and "CS" percent cholesterol inhibition.
(§2) Seven-week-old male Wistar rats weighing 200 to 220 g are used, 5 rats in each group.
(§3) Each compound of the invention (100 mg or 200 mg) is dissolved in 10 ml of an olive oil-cholesterol mixture (containing 15% of cholesterol). The mixture containing the compound is orally given to the rat with a probe at a dose of 10 ml/kg. Two or 8 hours thereafter, 6 ml of whole blood is withdrawn from the descending aorta of the rat under ether anesthesia with a syringe containing heparin. The blood is centrifuged at 5° C. and 3000 r.p.m. to obtain the plasma. The plasma collected after the lapse of 2 hours is used for determining the triglycerides content, and the plasma obtained 8 hours later for determining the total cholesterol content, using a triglycerides measuring kit (trade mark "Triglycerides-B Test Wako," product of Wako Junyaku Co., Ltd., Japan) and a total cholesterol measuring kit (trade mark "Cholesterol Test Wako," product of the same), respectively. The olive oil-cholesterol mixture containing no compound is similarly given to a control group, while no treatment is conducted for a normal group. The triglycerides and total cholesterol contents in the plasma are also determined for these groups in the same manner as is the case with the test groups.
(§4) The present hyperlipidemia inhibition achieved by the present compound is given by [formula] in which A is the triglycerides (cholesterol) content of the control group, B is the triglycerides (cholesterol) content of the normal group, and C is the triglycerides (cholesterol) content of the group to which the present compound is given.

cholesterol = assay: Antilipemic effect: percent total cholesterol inhibition in plasma of rats given an olive oil-cholesterol mixture; format: in vivo, male Wistar rats; details: plasma 8 hours after dosing, Wistar rat; for inhibition in vivo at 100 mg/kg: oral 100 mg/kg, read-out: Anti-lipemic effect, CS (percent cholesterol inhibition)
Protocol: as §1, §2, §3, §4

Acute toxicity = details: rat, in vivo
Source text: Six-week-old male Wistar rats weighing 180 to 200 g are used, 5 rats in each group. Each compound of the invention is suspended in a 30% aqueous solution of polyethylene glycol 6000 and orally given to the rat at the dosage shown in Table 2. The animals are checked for poisoning, body weight and survival to determine the LD50 value.

[1] = oral 200 mg/kg (asterisked values), plasma 2 hours after dosing, Wistar rat
[2] = plasma 2 hours after dosing, Wistar rat
[3] = oral, six-week-old male Wistar rats, suspended in 30% aqueous polyethylene glycol 6000, read-out: LD50

Structure (SMILES) | inhibition in vivo at 200 mg/kg (triglycerides; [1]) [%] | inhibition in vivo at 100 mg/kg (triglycerides; [2]) [%] | LD50 (Acute toxicity; po) [mg/kg] | also measured
CCCC(=O)COS(=O)(=O)CCCOCC [Compound 2] | 65 |  |  | 
CCCC(=O)COS(=O)(=O)C1CCCCC1 [Compound 3] | 51 |  |  | 
CCCC(=O)COS(=O)(=O)Cc1ccccc1 [Compound 4] |  | 68 |  | inhibition in vivo at 100 mg/kg (cholesterol): 52%
CCCC(=O)COS(=O)(=O)c1ccccc1 [Compound 6, 2-oxopentylbenzene sulfonate] |  | 90 |  | LD50 (Acute toxicity; [3]): > 1000 mg/kg; inhibition in vivo at 100 mg/kg (cholesterol): 53%
CCCCC(=O)COS(=O)(=O)c1ccccc1 [Compound 7] |  | 98 |  | inhibition in vivo at 100 mg/kg (cholesterol): 67%
CC(C)(C)CC(=O)COS(=O)(=O)c1ccccc1 [Compound 11] |  | 80 | > 3000 | inhibition in vivo at 100 mg/kg (cholesterol): 53%
CC(C)CCC(=O)COS(=O)(=O)c1ccccc1 [Compound 12] |  | 95 | > 2500 | inhibition in vivo at 100 mg/kg (cholesterol): 63%
CC=CC(=O)COS(=O)(=O)c1ccccc1 [Compound 13] |  | 72 |  | 
CCC(=O)COS(=O)(=O)c1ccc(C)cc1 [Compound 15] |  | 40 | > 1500 | inhibition in vivo at 100 mg/kg (cholesterol): 41%
CCCC(=O)COS(=O)(=O)c1ccc(C)cc1 [Compound 16, 2-oxopentyl-p-toluenesulfonate] |  | 64 |  | LD50 (Acute toxicity; [3]): > 1500 mg/kg; inhibition in vivo at 100 mg/kg (cholesterol): 31%
CCCCC(=O)COS(=O)(=O)c1ccc(C)cc1 [Compound 17] |  | 61 | > 2000 | inhibition in vivo at 100 mg/kg (cholesterol): 33%
CCCCCCCC(=O)COS(=O)(=O)c1ccc(C)cc1 [Compound 20] |  | 71 | > 3000 | inhibition in vivo at 100 mg/kg (cholesterol): 47%
CCCCCCCCC(=O)COS(=O)(=O)c1ccc(C)cc1 [Compound 21] | 70 |  | > 3000 | Anti-lipemic effect, CS (percent cholesterol inhibition), asterisked (cholesterol; oral 200 mg/kg (asterisked values)): 43%
CCCCCCCCCC(=O)COS(=O)(=O)c1ccc(C)cc1 [Compound 22] | 62 |  | > 3000 | 
CCCCCCCCCCC(=O)COS(=O)(=O)c1ccc(C)cc1 [Compound 23] | 64 |  | > 3000 | 
CCCCCCCCCCCCC(=O)COS(=O)(=O)c1ccc(C)cc1 [Compound 24] | 63 |  | > 3000 | 
CCCCCCCCCCCCCCC(=O)COS(=O)(=O)c1ccc(C)cc1 [Compound 25] | 62 |  | > 3000 | 
Cc1ccccc1S(=O)(=O)OCC(=O)CCCCCCC(C)C [Compound 33] | 67 |  | > 3000 | 
CCCCCCCCCCCC(=O)COS(=O)(=O)c1ccc(OC)cc1 [Compound 39] | 58 |  | > 4000 | 
C=CCCCCCCCCC(=O)COS(=O)(=O)c1ccc(OC)cc1 [Compound 42] | 57 |  | > 4000 | 

Structure (SMILES) | inhibition in vivo at 200 mg/kg (triglycerides; [1]) [%] | inhibition in vivo at 100 mg/kg (triglycerides; [2]) [%] | LD50 (Acute toxicity; po) [mg/kg] | also measured
CCCCOc1ccc(S(=O)(=O)OCC(=O)CCCC)cc1 [Compound 54] |  | 48 | > 2000 | 
CCCCCCCCCC(=O)COS(=O)(=O)c1ccc(OCCCC)cc1 [Compound 57] | 52 |  | > 4000 | 
CCCCOc1ccc(S(=O)(=O)OCC(=O)CCC(C)C)cc1 [Compound 58] | 61 |  | > 4000 | 
CCCC(=O)COS(=O)(=O)c1ccc(O)cc1 [Compound 59] |  | 70 | > 3000 | 
CCCCCC(=O)COS(=O)(=O)c1ccc(O)cc1 [Compound 60] |  | 83 | > 3000 | 
CCCCCCCCC(=O)COS(=O)(=O)c1ccc(O)cc1 [Compound 61] |  | 67 | > 3000 | 
CCC(C)C(=O)COS(=O)(=O)c1ccc(O)cc1 (stereo not drawn) [Compound 63] |  | 76 | > 2000 | 
CCCCCCC(=O)COS(=O)(=O)c1ccc(Cl)cc1 [Compound 67] |  | 80 | > 2000 | 
CCCCCCCCCC(=O)COS(=O)(=O)c1ccc(Cl)cc1 [Compound 68, 2-oxo-undecyl-p-chlorobenzene sulfonate] |  | 62 |  | LD50 (Acute toxicity; [3]): > 3000 mg/kg
CCCCCCCCCCC(=O)COS(=O)(=O)c1ccc(Cl)cc1 [Compound 69] | 77 |  | > 3000 | 
CC(=O)COS(=O)(=O)c1c(C)cc(C)cc1C [Compound 71] |  | 60 |  | inhibition in vivo at 100 mg/kg (cholesterol): 82%
CCCCCCCCCC(=O)COS(=O)(=O)c1c(C)cc(C)cc1C [Compound 79] | 61 |  | > 4000 | 
CCCCCCCCCCCC(=O)COS(=O)(=O)c1c(C)cc(C)cc1C [Compound 81] | 60 |  | > 4000 | 
CCCCC(CC)C(=O)COS(=O)(=O)c1c(C)cc(C)cc1C (stereo not drawn) [Compound 84] |  | 59 | > 4000 | 
Cc1cc(C)c(S(=O)(=O)OCC(=O)CCCCCCC(C)C)c(C)c1 [Compound 85] |  | 48 | > 4000 | 
CCCCC=CCC(=O)COS(=O)(=O)c1c(C)cc(C)cc1C [Compound 87] | 57 |  |  | 
C=CCCCCCCCCC(=O)COS(=O)(=O)c1c(C)cc(C)cc1C [Compound 88] | 66 |  | > 4000 | 
CCCC(=O)COS(=O)(=O)c1c(C)c(C)cc(C)c1C [Compound 89] | 56 |  | > 3000 | 
CCCCCCCC(=O)COS(=O)(=O)c1c(C)c(C)cc(C)c1C [Compound 91] | 47 |  | > 3000 | 
CCCCCCCCCCC(=O)COS(=O)(=O)c1c(C)c(C)cc(C)c1C [Compound 92] | 43 |  |  | LD50 (Acute toxicity; [3]): > 3000 mg/kg

Structure (SMILES) | inhibition in vivo at 200 mg/kg (triglycerides; [1]) [%] | inhibition in vivo at 100 mg/kg (triglycerides; [2]) [%] | LD50 (Acute toxicity; po) [mg/kg] | also measured
C=CCCC(=O)COS(=O)(=O)c1c(C)c(C)cc(C)c1C [Compound 93] | 60 |  | > 3000 | 
Cc1cc(C)c(C)c(S(=O)(=O)OCC(=O)CCCCCCC(C)C)c1C [Compound 94] | 51 |  | > 3000 | 
CCCC(=O)COS(=O)(=O)c1cccc(C(=O)O)c1 [Compound 102] | 42 |  | > 3000 | 
CCCC(=O)COS(=O)(=O)c1ccc(NC(C)=O)cc1 [Compound 103] | 51 |  | > 3000 | 
CCCCCCCCCCCCc1ccc(S(=O)(=O)OCC(=O)CCC)cc1 [Compound 104] | 56 |  | > 3000 | 
CCCC(=O)COS(=O)(=O)c1ccccc1C1OCCO1 [Compound 105] | 55 |  | > 3000 | 
CCCC(=O)COS(=O)(=O)c1ccc([N+](=O)[O-])cc1 [Compound 106] | 60 |  |  | 
CCCC(=O)COS(=O)(=O)c1cc(Cl)ccc1Cl [Compound 107] |  | 75 | > 1500 | 
CCCC(=O)COS(=O)(=O)c1ccc(C)c(Cl)c1 [Compound 108] |  | 64 | > 1500 | 
CCCC(=O)COS(=O)(=O)c1ccc(Cl)cc1O [Compound 109] | 82 |  | > 2000 | 
CCCC(=O)COS(=O)(=O)c1ccc(O)c(OC)c1 [Compound 110] |  | 70 |  | 
CCCC(=O)COS(=O)(=O)c1cc(Cl)c(Cl)cc1Cl [Compound 113] |  | 60 | > 1500 | 
CCCC(=O)COS(=O)(=O)c1c(C(C)C)cc(C(C)C)cc1C(C)C [Compound 115] | 67 |  | > 3000 | 
CCCC(=O)COS(=O)(=O)c1c(C)c(C)c(C)c(C)c1C [Compound 118] | 76 |  | > 3000 | 
CCCC(=O)COS(=O)(=O)c1cc(Br)ccc1OC [Compound 119] |  | 67 | > 2000 | 
CCCC(C)CC(=O)COS(=O)(=O)c1ccc(OCC)cc1 (stereo not drawn) [Compound 142] |  | 47 | > 4000 | 
CCOc1ccc(S(=O)(=O)OCC(=O)CCC(CC)CC)cc1 [Compound 144] |  |  |  | inhibition in vivo at 200 mg/kg (triglycerides; Rattus norvegicus, po, 2 h): 55%; LD50 (Acute toxicity; [3]): > 4000 mg/kg
CCOc1ccc(S(=O)(=O)OCC(=O)CCC2CCCCC2)cc1 [Compound 174] |  |  |  | TG (percent triglycerides inhibition), Table 3 (triglycerides; Table 3, dose not given): 100%
